Measured values from patent US8470779B2, “Catecholamine regulated protein” (CRP40 Inc., priority 2005, dated 2013).

Assays:
[1] = system: human CRP40 expression in DRD2 transfected SH-SY5Y human neuroblastoma cells; test: Western immunoblotting of BQ/human CRP40 expression in DRD2 transfected SH-SY5Y cells; assay type: cell-based; settings: 100 μM; for BQ expression compared to controls: overnight, DA D2 receptor transfected SH-SY5Y cells
Description: The pcDNA 3.1(+) vector was introduced into SH-S Y5 Y cells by lipofection method (Invitrogen Life Science technology. U.S.A.). Briefly, 24 μg of DRD2 plasmid DNA was mixed with 1.5 ml of Opti MEM media and 60 μl of lipofectamine 2000 reagent was added and mixed with 1.5 ml of Opti MEM media and SH-SY5Y cells. Geneticin-resistant clones stably expressing the D2L receptor were screened by a [3H] spirerone-binding assay and was maintained in RPMI medium (RPMI contained 10% fetal bovine serum, 1 mM glutamate, 50 U/ml of penicillin, and 50 U/ml of streptomycin) with 200 μg/ml of geneticin. Cells were grown to confluency (5-6 days following sub-culturing) in fresh RPMI medium.
SH-SY5Y cells were scraped off and this procedure was repeated a second time. The cells were incubated 5 min, centrifuged at 2000 rpm for 5 min and the supernatant was discarded. The pellet was re-suspended in 0.5 ml 0.35M sucrose buffer (wPMSF), homogenized and centrifuged at 1000 g for 10 min. The supernatant was centrifuged and the pellet was re-suspended in a 0.32M sucrose buffer (wPMSF), homogenized, and centrifuged. The pellet was re-suspended 0.053 ml Tris-EDTA PMSF and labeled as nuclear fraction 1. The supernatant was centrifuged and the resulting supernatant was stored and labeled cytosolic fraction 1. The remaining pellet was re-suspended in 0.150 ml Tris-EDT A-PMSF and labeled mitochondrial fraction 1.
The cells were exposed to the neurotransmitter and/or the neuroleptic (antipsychotic) and left overnight. Western immunoblotting with BQ primary antibody was performed, followed by immunoblotting with polyclonal conjugated horseradish peroxidase secondary antibody.

[2] = system: human CRP40; test: Immunohistochemistry localization of human CRP40 in post-mortem nucleus accumbens; settings: post-mortem NA slide of schizophrenic patient treated with large doses of HAL
Description: Three slides were chosen from the 60 samples generously donated by The Stanley Foundation. The slides consisted of: 1) control; 2) schizophrenia patient-drug free; 3) schizophrenic patient-15000K, HAL-treated. The slides were incubated with 4% formaldehyde and diluted in PBS for 30 min. Immediately following, washed sections 3 times with PBS for 5 min, each time and dried off each slide as close as possible to the tissue and outlined the section with the hydrophobic pen. The sections were then blocked by incubating sections with 3% normal goat serum*(NGS) (diluted in PBS containing 0.6% Triton X-100) for 1 h. Next, incubated slides with primary human CRP40 polyclonal antibody diluted in PBS containing 0.6% Triton X-100 (and 3% NGS if necessary) overnight at 4° C. (wrapped in aluminum foil). The following day, the slides were washed 3 times with PBS for 5 min, each time, and incubated slides with FITC secondary antibody diluted in PBS containing 0.6% Triton X-100 for 4 h. Next, the sections were washed 6 times in PBS and slides were mounted with appropriate cover-slips and fixed with nail polish.
Three slides containing post mortem brain specimens of the NA were used in immunohistochemistry studies. […] The next day, the slides were analyzed using a confocal microscope (McMaster University).

[3] = biological target: T1, recombinant human CRP40 (BQ-fusion protein) (Homo sapiens, UniProt P38646); test: [3H]-NPA protein-binding assay with BQ-fusion protein; settings: 100 μM, third of three NPA entries
T1 construct: a fragment of 720 base pairs (Genbank #BQ224193) was amplified; GST (Schistosoma japonicum glutathione S-transferase, pGEX-2T) (N); made in house; host or cells: E. coli BL21 (pGEX-2T)
T1 sequence (P38646 334-578 E571K/D572N/R574P): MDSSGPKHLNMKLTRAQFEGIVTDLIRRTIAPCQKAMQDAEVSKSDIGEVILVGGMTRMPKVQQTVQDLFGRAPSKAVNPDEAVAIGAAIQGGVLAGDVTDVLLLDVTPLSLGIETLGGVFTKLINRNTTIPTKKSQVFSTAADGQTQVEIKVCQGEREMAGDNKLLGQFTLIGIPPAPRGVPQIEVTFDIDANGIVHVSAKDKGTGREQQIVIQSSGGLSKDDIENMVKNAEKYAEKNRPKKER
Description: Briefly, the assays were performed in triplicate and consisted of the following solutions and protocol: 50 mM TRIS, 5.0 mM mgCl2, 1.0 mM EDTA, 0.ImM DTT, 0.ImM PMSF, 100 mg/ml Bacitracin and 5.0 mg/ml soybean trypsin; DA (mw=189.6) was dissolved in 0.1% ascorbic acid; each tube was vortexed briefly and incubated in a shaking water bath at 37° C., for 2 h; receptor binding equipment (Brandel, U.S.A.) washed 3 times with distilled water; then repeated washes in assay buffer, 50 nM TRIS, 1 mM EDTA, pH 7.4; 18 test-tubes were set on the binding platform and fiberglass filter paper was put on the platform. The samples were passed through the filter paper with 3 consecutive washes; placed in the scintillation tubes and 5.0 ml Biodegradable Counting Scintillant was added and radioactive counts were measured (Amersham, U.S.A.).
The first protein binding study involved [3+H]NPA and 3 different concentrations of displacement molecules (DA, NPA), 100 μM, 10 μM and 1 μM, respectively. Following protein binding, DPM counts were performed in a Beckman scintillation counter.

[4] = system: 6-OHDA lesioned hemi-Parkinson's rat model; test: Apomorphine-induced turning behaviour after striatal injection; assay type: in vivo; settings: for apomorphine-induced rotational symptoms: striatal injection on lesioned side
Excerpt: This research study examined the potential of CRP40 as a therapeutic in Parkinson's disease (PD). It has been shown herein that dopamine (DA) can modulate CRP40 expression. Further, knockdown of CRP40 in the medial prefrontal cortex (mPFC) caused deficits in DA-dependant behaviours related to human disease. This study investigated whether the introduction of CRP40 into the lesioned region of a rat model of PD would reduce or reverse symptoms associated with PD compared to control animals. This model is a well-established one in which the nigrostriatal system is hemi-laterally lesioned by injection of the cytotoxin 6-hydroxydopamine (6-OHDA). These animals show phenotypic rotating behaviour as a result of the hemi-lesion.
(§1) The treatment groups were the following: Group 1 (n=3; males) were hemi-lesioned animals treated with a sham injection (CSF) to the Striatum; Group 2 (n=3; males) were hemi-lesioned animals treated with Mortalin2 plasmid injection to the Striatum; Group 3 (n=3; males) were hemi-lesioned animals treated with CRP40 plasmid injection to the Striatum; Group 4 (n=2; males) were hemi-lesioned animals treated with Mortalin2 protein injection to the Striatum; Group 5 (n=2; males) were hemi-lesioned animals treated with CRP40 protein injection to the Striatum; Group 6 (n=3; males) were controls, non-lesioned, and received a CSF injection to the Striatum.
Once the animals were comfortable with the experimenter, they were subjected to a series of behavioural tests for baseline measures. In addition to the apomorphine-induced rotation, other tests included prepulse inhibition (PPI) and locomotor activity tests. The apomorphine-induced rotations test involves giving each animal a subcutaneous injection of apomorphine according to body weight. Since the animals are lesioned hemi-laterally at the nigrostriatal pathway, they show compulsive turning behaviour in a direction contra-lateral to the lesion. For this project, there was interest in the number of rotations each animal made in a ten minute testing period. PPI is a test of sensorimotor gating where animals are exposed to a startling acoustic pulse. This pulse, however, follows a subtle pre-pulse which allows for inhibition of the startle response. Locomotor activity test involves cubic chambers lined with infrared sensors that detect any and all movements made by the animal over a three hour testing period. For this experiment “total distance travelled” measurements were of interest.
Once all baseline data was collected, the rats were placed under gaseous anaesthesia and injected, via cannulae, with one of the five following treatments: CSF sham (Striatal n=3), CRP40 plasmid DNA (Striatal n=3), MOT-2 plasmid DNA (Striatal n=3), CRP40 protein (Striatal n=2), MOT-2 protein (Striatal n=2). […]

[5] = system: 6-OHDA lesioned hemi-Parkinson's rat model; test: HPLC of DA levels in SN and striatum; assay type: in vivo; settings: striatal-injected rats
Excerpt: as §1
Once all baseline data was collected, the rats were placed under gaseous anaesthesia and injected, via cannulae, with one of the five following treatments: CSF sham (Striatal n=3), CRP40 plasmid DNA (Striatal n=3), MOT-2 plasmid DNA (Striatal n=3), CRP40 protein (Striatal n=2), MOT-2 protein (Striatal n=2).
After recovery from surgery, all animals were again tested using the same behavioural methods for post-intervention measures. PPI and locomotor activity were tested at 7 and 14 days post-injection, and apomorphine-induced rotation was tested at various time points between days 2 and 14 post-injection. On day 15 post-injection, all rats were sacrificed. […]

NCCc1ccc(O)c(O)c1 [DA, dopamine]
human CRP40 protein expression in the nuclear fraction relative to control cells ([1]; SH-SY5Y nuclear fraction): significant increase | BQ expression compared to controls [1]: significant increase

O=C(CCCN1CCC(O)(c2ccc(Cl)cc2)CC1)c1ccc(F)cc1 [Haloperidol, haloperidol]
BQ expression compared to controls [1]: significant increase | localization of human CRP40 antibody staining [2]: located almost exclusively within the nucleus

CCCN1CCc2cccc3c2[C@H]1Cc1ccc(O)c(O)c1-3 [NPA, N-propylnorapomorphine]
amount of displacement of [3H]NPA [3]: 64.3%

B1: CRP40 protein: 346 amino acid catecholamine-regulated protein, SEQ ID NO: 8 (protein, listed as Homo sapiens)
chain: MDSSGPKHLNMKLTRAQFEGIVTDLIRRTIAPCQKAMQDAEVSKSDIGEVILVGGMTRMPKVQQTVQDLFGRAPSKAVNPDEAVAIGAAIQGGVLAGDVTDVLLLDVTPLSLGIETLGGVFTKLINRNTTIPTKKSQVFSTAADGQTQVEIKVCQGEREMAGDNKLLGQFTLIGIPPAPRGVPQIEVTFDIDANGIVHVSAKDKGTGREQQIVIQSSGGLSKDDIENMVKNAEKYAEEDRRKKERVEAVNMAEGIIHDTETKMEEFKDQLPADECNKLKEEISKMRELLARKDSETGENIRQAASSLQQASLKLFEMAYKKMASEREGSGSSGTGEQKEDQKEEKQ
apomorphine-induced rotational symptoms ([4]; day 10 post-injection): alleviated | apomorphine-induced rotational symptoms ([4]; day 14 post-injection): beginning to increase again | apomorphine-induced rotational symptoms ([4]; days 4 and 7 post-injection): reversal of rotational symptoms | apomorphine-induced rotational symptoms, overall ([4]; striatal injection, no time point stated): completely reversed | levels of DA in the SN & striatum (HPLC) [5]: increase in dopamine concentration at both the SN and the striatum
